According to US12122760B2, “Compound, composition, and use thereof in preparation of drug” (CHANGSHA ZEDA MEDICAL TECH. CO., LTD, priority 2019, dated 2024):

Legend:
[1] = test system: Histone deacetylase (HDAC); experiment: HDAC inhibitory activity: Kac-H3 Western Blot in VCaP cells; format: cell-based; details: 10 uM drug, 24 h, FIG. 5
Procedure: (§1) The VCap cells are cultured in the 6-well plate. After treating the VCap cells with the drugs for 24 hours, acetylation levels of the tubulin in the cytoplasm and the H3 protein in the nucleus are examined by the western blot. An experiment process is as follows:
The VCaP cells are spread in the 6-well plate. 5×10^5 cells are inoculated per well, and incubated overnight to make the cells stick to a wall. Then 10 uM of the drug is added to each well. The cells are collected after being incubated for 24 h. The EpiQuik Total Histone Extraction kit (Epigentek, USA) is used to extract the histones, and the Western Blot method is used to detect expression levels of Kac-H3 (localized cell nucleus) in the cells after adding the different drugs.

[2] = target: T1, AR-LBD (GST) (Rattus norvegicus, UniProt P15207); experiment: PolarScreen Androgen Receptor (AR) Competitor Assay, binding experiment of the antagonist and AR; details: fluorescence polarization, incubated 6 hours, FIG. 1; read-out: IC50 of the drug and AR-LBD binding
T1 construct: purchased Life technologies company, USA
T1 sequence (P15207 651-882 limits assumed): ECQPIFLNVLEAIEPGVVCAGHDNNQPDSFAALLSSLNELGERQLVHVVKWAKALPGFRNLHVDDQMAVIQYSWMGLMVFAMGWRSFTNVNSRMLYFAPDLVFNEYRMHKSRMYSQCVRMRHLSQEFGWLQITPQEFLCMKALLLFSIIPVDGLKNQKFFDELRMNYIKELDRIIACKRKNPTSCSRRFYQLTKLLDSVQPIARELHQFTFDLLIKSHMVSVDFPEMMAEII
Source text: PolarScreen™ Androgen Receptor (AR) Competitor Assay, Green kit (Life technologies company, USA) is used to test the affinity of the antagonist to AR-LBD (GST). The mechanism of the experiment is that the AR-LBD is combined with a small molecule fluormone tracer (Fluormone Tracer), and an antagonist added can competitively bind with AR-LBD so as to replace the fluormone tracer, and the replaced fluormone tracer […], and the value of the fluorescence polarization is inversely proportional to the number of the replaced tracers.
A specific process is as follows: the drug is dissolved into 500 uM by using DMSO, and then diluted to 244 nM by double dilution concentration gradients in a 96-well plate. A 10 uL of a reaction system AR-LBD+Tracer is configured in a 384-well plate and 10 uL of the drug solution is added. The positive control is 10 uL of AR-LBD+Tracer with 10 uL of DHT added. The 384-well plate is wrapped by tin foil and incubated for 6 hours in the dark. The fluorescence polarization value is read on a multi-function microplate reader. Graphpad Prism software is used to draw a drug concentration as an abscissa, and the fluorescence polarization value is used as an ordinate for drawing a curve. […] Herein, the DHT, MDV3100, and ARN509 are positive controls.

[3] = test system: Histone deacetylase (HDAC); experiment: HDAC inhibitory activity: Kac-tubulin Western Blot in VCaP cells; format: cell-based; details: 10 uM drug, 24 h, FIG. 4
Procedure: as §1
The VCaP cells are spread in the 6-well plate. 5×10^5 cells are inoculated per well, and incubated overnight to make the cells stick to a wall. On the second day, 10 uM of the drug is added per well. After being incubated for 24 h, the cells are collected, and lysed to extract the cell total protein. The Western Blot method is used to detect the expression levels of Kac-tubilin (localized cytoplasm) in the cells after treating with the different drugs.

[4] = test system: VCaP cells; experiment: Inhibiting effect on VCaP cell proliferation (MTS); format: cell-based; details: 4 days treatment, FIG. 6
Procedure: Androgen-sensitive prostate cancer cell (VCaP cells) are cultured in a 96-well plate. The VCaP cells are able to proliferate in a medium supplemented with 10 nM of the DHT. After treating the cells with the drugs for 4 days, we measure the effects of the drugs on the proliferation of the prostate cancer cells.
The VCaP cells are cultured by using 5% CSS and 1640 medium without phenol red, and inoculated in the 96-well plate. 1×10^4 cells are added to each well, and incubated overnight to make the cells stick to a wall. Different concentrations of the drugs are added on the second day. After treating the cells with the drugs for 4 days, cell viability is measured by the MTS kit (Promega, USA). To each well, 10% of an MTS reagent is added, and incubation continued for 2 hours. The absorbance value at […] is then measured by the multi-functional microplate reader. The Graphpad Prism software is used to draw a curve by using the drug concentration as an abscissa and using the absorbance value of the drug treatment/the absorbance value of the blank treatment cell as an ordinate.

In the case of N#Cc1ccc(N2C(=O)C3(CCC3)N(c3ccc(C(=O)NO)c(F)c3)C2=S)cc1C(F)(F)F [Zeta 55, 4-(7-(4-cyano-3-(trifluoromethyl)phenyl)-8-oxo-6-thio-5,7-diazaspiro[3.4]octane-5-yl)-2-fluoro-N-hydroxybenzamide], the “H3 acetylation in the nucleus (HDAC inhibitory activity)” value [1] is reported as “superior”, the IC50 [2] is reported as 29.8 µM and the “acetylation of the tubulin in the cytoplasm (HDAC inhibitory activity)” value [3] is reported as “superior”. For the same compound, the “inhibitory effect on the VCap cell proliferation, from high to low” value [4] was “Zeta55>Zeta32>Zeta33>Zeta34>Zeta57” and the “cell proliferation inhibitory effect compared with positive control drug MDV3100” value ([4]; VCaP cells) was “better than that of the positive control drug MDV3100”.
